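1) Cells in 96-well plates. 2) Compound, 48 h, 5 concentrations. 3) Linear interpolation between surrounding doses. 4) Unreached endpoint = highest concentration. GI50 marks 50% less growth. Definition used: TGI = concentration required for complete inhibition of growth.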
Legend:
Assay in all cases: NCI anticancer screen, dose series, 48 h
DMS 273 small cell lung = system: DMS 273 small cell lung
SNB-78 CNS = system: SNB-78 CNS
DMS 114 small cell lung = system: DMS 114 small cell lung
XF 498 CNS = system: XF 498 CNS
HS 578T breast = system: HS 578T breast
MCF7 breast = system: MCF7 breast
PC-3 prostate = system: PC-3 prostate
MDA-MB-231 breast = system: MDA-MB-231 breast
T-47D breast = system: T-47D breast
BT-549 breast = system: BT-549 breast

## O=C(c1ccccc1)C1CCCCN1C(=O)c1ccccc1 (stereo not drawn)
DMS 273 small cell lung
  TGI: > 100 µM
SNB-78 CNS
  TGI: > 100 µM
DMS 114 small cell lung
  TGI: > 100 µM

## CS(=O)(=O)OCCN1CCN(C(=O)c2cccc3c(Nc4ccc(S(=O)(=O)N=C(N)N)cc4)c4ccccc4nc23)CC1
DMS 273 small cell lung
  TGI: > 100 µM
XF 498 CNS
  TGI: > 100 µM
SNB-78 CNS
  TGI: > 100 µM
DMS 114 small cell lung
  TGI: > 100 µM

## CCOC(=O)/C(O)=C/c1cc(OC)cc(=O)o1
DMS 273 small cell lung
  TGI: > 100 µM
SNB-78 CNS
  TGI: > 100 µM
DMS 114 small cell lung
  TGI: > 100 µM

## CC1OC(OCC2OC(Oc3c(-c4ccc(O)cc4)oc4cc(O)cc(O)c4c3=O)C(OC3OC(C)C(O)C(O)C3O)C(O)C2O)C(O)C(O)C1O (stereo not drawn)
DMS 273 small cell lung
  TGI: > 100 µM
XF 498 CNS
  TGI: > 100 µM
SNB-78 CNS
  TGI: > 100 µM
DMS 114 small cell lung
  TGI: > 77.4 µM

## COc1cc(/C=C\c2ccc(C)cc2)cc(OC)c1OC
DMS 273 small cell lung
  TGI: 17.4 µM
HS 578T breast
  GI50: 0.0358 µM
DMS 114 small cell lung
  TGI: 20.8 µM
MCF7 breast
  TGI: > 100 µM
PC-3 prostate
  GI50: 0.0173 µM
  TGI: > 100 µM

## COC[C@@H](N=CN1CCc2cc(OC)c(OC)cc2[C@@H]1C)C(C)(C)C
XF 498 CNS
  TGI: > 100 µM
DMS 114 small cell lung
  TGI: > 100 µM

## CC1(C)C(=O)C(C)(C)C1=NN
DMS 273 small cell lung
  TGI: > 100 µM
XF 498 CNS
  TGI: > 100 µM
SNB-78 CNS
  TGI: > 100 µM
DMS 114 small cell lung
  TGI: > 100 µM

## Cc1ccc(-c2cc(-c3ccco3)c(C#N)c(=O)[nH]2)cc1
DMS 273 small cell lung
  TGI: > 100 µM
SNB-78 CNS
  TGI: > 100 µM

## CCCNCCCC(NC(C)=O)C(=O)NCc1ccccc1 (stereo not drawn)
DMS 273 small cell lung
  TGI: > 100 µM
XF 498 CNS
  TGI: > 100 µM
SNB-78 CNS
  TGI: > 100 µM
DMS 114 small cell lung
  TGI: > 100 µM

## CC(=O)NNc1nc(C)c(C(=O)NNC(=O)C(=O)Nc2c(C)cccc2C)s1
DMS 273 small cell lung
  TGI: > 100 µM
SNB-78 CNS
  TGI: > 100 µM

## CN(C)c1ccc([O-])cc1.CN(C)c1ccc([O-])cc1.CN(C)c1ccc([O-])cc1.CN(C)c1ccc([O-])cc1.[Ti+4]
DMS 273 small cell lung
  GI50: 34.3 µM
  TGI: > 100 µM
XF 498 CNS
  GI50: > 100 µM
  TGI: > 100 µM
SNB-78 CNS
  GI50: > 100 µM
  TGI: > 100 µM
DMS 114 small cell lung
  GI50: 50.7 µM
  TGI: > 100 µM

## Clc1ccc(Cc2nc3ccccc3s2)c(Cl)c1
DMS 273 small cell lung
  TGI: 33.6 µM
XF 498 CNS
  TGI: 26.5 µM
DMS 114 small cell lung
  TGI: 36.5 µM

## O=C(O)C1C2CCC(O2)C1C(=O)N1CCCCC1 (stereo not drawn)
DMS 273 small cell lung
  TGI: 23.3 µM
SNB-78 CNS
  TGI: 38.3 µM
DMS 114 small cell lung
  TGI: 5.06 µM

## COC(=O)C(C(=O)C(=O)Nc1ccc(C(F)(F)F)cc1[N+](=O)[O-])c1csc(-n2nc(-c3ccccc3)cc2-c2ccccc2)n1 (stereo not drawn)
DMS 273 small cell lung
  TGI: > 100 µM
SNB-78 CNS
  TGI: > 100 µM
DMS 114 small cell lung
  TGI: > 100 µM

## COC1=CC(=O)C2C(C1=O)[C@@H]1c3ccccc3C[C@H]21 (stereo partly drawn)
DMS 273 small cell lung
  TGI: > 100 µM
XF 498 CNS
  TGI: > 100 µM
SNB-78 CNS
  TGI: > 100 µM

## CC(C)C1(O)C(c2ccccc2)=C(c2ccccc2)C(c2ccccc2)=C1c1ccccc1
DMS 273 small cell lung
  TGI: 37.1 µM
XF 498 CNS
  TGI: 14.2 µM
SNB-78 CNS
  TGI: > 100 µM
DMS 114 small cell lung
  TGI: 11.8 µM

## CCCCc1c2c(nc3c1CCc1cc4cc5c(nc4nc1-3)-c1nc3c(c(CCCC)c1CC5)CCCC3)CCCC2
DMS 273 small cell lung
  TGI: > 100 µM
SNB-78 CNS
  TGI: > 100 µM
DMS 114 small cell lung
  TGI: 88 µM

## CC1CC#CCOC(=O)CCCC1=O (stereo not drawn)
DMS 273 small cell lung
  TGI: > 100 µM
XF 498 CNS
  TGI: > 100 µM
SNB-78 CNS
  TGI: > 100 µM
DMS 114 small cell lung
  TGI: > 100 µM

## NC1CCCCC1.[O]=[Ge].[O]=[Ge].[O]=[Ge][OH].[O]=[Ge][OH]
DMS 273 small cell lung
  TGI: > 100 µM
XF 498 CNS
  GI50: > 100 µM
  TGI: > 100 µM
SNB-78 CNS
  TGI: > 100 µM
DMS 114 small cell lung
  TGI: > 100 µM

## NCCCOCC(=O)O
DMS 273 small cell lung
  TGI: > 100 µM
SNB-78 CNS
  TGI: > 100 µM
DMS 114 small cell lung
  TGI: > 100 µM

## C=C(CCCCCCCCC)CC(=O)SCCNC(=O)CCNC(=O)C(O)C(C)(C)COP(=O)(O)OP(=O)(O)OCC1OC(n2cnc3c(N)ncnc32)C(O)C1OP(=O)(O)O (stereo not drawn)
DMS 273 small cell lung
  TGI: 45.2 µM
HS 578T breast
  TGI: > 100 µM
MDA-MB-231 breast
  TGI: > 100 µM
T-47D breast
  TGI: > 100 µM
XF 498 CNS
  TGI: > 100 µM
SNB-78 CNS
  TGI: 65 µM
DMS 114 small cell lung
  TGI: > 100 µM
BT-549 breast
  TGI: > 100 µM
MCF7 breast
  TGI: > 100 µM
PC-3 prostate
  TGI: > 100 µM

## COc1ccccc1/C=C1\CCC(CCN(C)C)(C2=CCCC2)C1=O (stereo not drawn)
DMS 273 small cell lung
  TGI: 32.1 µM
XF 498 CNS
  TGI: 31.7 µM
SNB-78 CNS
  TGI: 65.9 µM
DMS 114 small cell lung
  TGI: 34.2 µM

## CCO/C=C/C(C)C1(C(=O)OCC)CCCCC1=O (stereo not drawn)
DMS 273 small cell lung
  TGI: 47 µM
XF 498 CNS
  TGI: > 100 µM
SNB-78 CNS
  TGI: > 100 µM
DMS 114 small cell lung
  TGI: > 100 µM

## CC(=O)N[C@@H]1C(O)CN2C(=O)C(=O)O[C@H](C(O)CO)[C@@H]12 (stereo partly drawn)
DMS 273 small cell lung
  TGI: > 100 µM
XF 498 CNS
  TGI: > 100 µM
SNB-78 CNS
  TGI: > 100 µM
DMS 114 small cell lung
  TGI: > 100 µM

## O=Cc1ccccc1OCCOc1cc(OCCOc2ccccc2C=O)c(OCCOc2ccccc2C=O)cc1OCCOc1ccccc1C=O
DMS 273 small cell lung
  TGI: > 100 µM
XF 498 CNS
  TGI: > 71.5 µM
SNB-78 CNS
  TGI: > 100 µM
DMS 114 small cell lung
  TGI: > 100 µM

## O=C(Nc1ccc(Cl)cc1Cl)C(=O)C(C(=O)c1ccc2ccccc2c1)C1OC(=O)c2ccccc21 (stereo not drawn)
SNB-78 CNS
  TGI: 78.4 µM
DMS 114 small cell lung
  TGI: 46.2 µM

## CCOC(=O)C1(Br)C(c2ccccc2)NC(=O)NC1(C)Br (stereo not drawn)
DMS 273 small cell lung
  TGI: > 100 µM
HS 578T breast
  GI50: 37.4 µM
  TGI: > 100 µM
MDA-MB-231 breast
  GI50: 27.8 µM
  TGI: > 100 µM
T-47D breast
  GI50: 47.3 µM
  TGI: > 100 µM
XF 498 CNS
  TGI: > 100 µM
SNB-78 CNS
  TGI: > 100 µM
DMS 114 small cell lung
  TGI: > 100 µM
BT-549 breast
  GI50: 14 µM
  TGI: 65.9 µM
MCF7 breast
  GI50: 28.1 µM
  TGI: > 100 µM
PC-3 prostate
  GI50: 22.3 µM
  TGI: > 100 µM

## OCCCOC(c1ccccc1)(c1ccccc1)c1ccccc1
DMS 273 small cell lung
  TGI: > 100 µM
XF 498 CNS
  TGI: > 100 µM
SNB-78 CNS
  TGI: > 100 µM
DMS 114 small cell lung
  TGI: > 100 µM

## CC1CC2CC(=O)CC3(C1)C2CCCN3CCCO (stereo not drawn)
DMS 273 small cell lung
  TGI: > 100 µM
XF 498 CNS
  TGI: > 100 µM
SNB-78 CNS
  TGI: > 100 µM
DMS 114 small cell lung
  TGI: > 100 µM

## COC(=O)C1C(O)CC(c2ccccn2)N(Cc2ccccc2)C1c1ccccn1 (stereo not drawn)
DMS 273 small cell lung
  TGI: > 100 µM
SNB-78 CNS
  TGI: > 100 µM
DMS 114 small cell lung
  TGI: > 100 µM

## CC(=O)Nc1ccc(C(=O)NN2C(=O)C(Cl)C2c2ccc([N+](=O)[O-])cc2)cc1 (stereo not drawn)
DMS 273 small cell lung
  TGI: > 100 µM
XF 498 CNS
  TGI: > 100 µM
SNB-78 CNS
  TGI: > 100 µM

## CC12N=NN(c3ccc([N+](=O)[O-])cc3)C1(O)c1ccccc1C2=O (stereo not drawn)
DMS 273 small cell lung
  TGI: > 100 µM
XF 498 CNS
  TGI: > 100 µM
DMS 114 small cell lung
  TGI: > 100 µM

## O=C(c1ccc(Cl)cc1)c1ccc(OCCCCCCCCCCOc2ccc(C(=O)c3ccc(Cl)cc3)cc2)cc1
DMS 273 small cell lung
  TGI: > 100 µM
SNB-78 CNS
  TGI: > 100 µM
DMS 114 small cell lung
  TGI: > 100 µM

## Cn1nc(-c2ccccc2)c(C(=O)/C=C/c2ccc(F)cc2)c(N2CCCCC2)c1=O
DMS 273 small cell lung
  TGI: 28.8 µM
XF 498 CNS
  TGI: 60.2 µM
DMS 114 small cell lung
  TGI: 17.1 µM

## COc1cc(/C=C\c2ccccc2)cc(OC)c1OC
DMS 273 small cell lung
  TGI: 11.5 µM
XF 498 CNS
  TGI: 23.7 µM
SNB-78 CNS
  TGI: > 89.8 µM
DMS 114 small cell lung
  TGI: > 28 µM

## O=C(/C=C/c1ccccc1)CC1OC(=O)c2ccccc21 (stereo not drawn)
DMS 273 small cell lung
  TGI: > 100 µM
XF 498 CNS
  TGI: > 100 µM
DMS 114 small cell lung
  TGI: > 100 µM

## O=C(Nc1cccc([N+](=O)[O-])c1)C(=O)C(C(=O)c1ccccc1-c1ccccc1)C1OC(=O)c2ccccc21 (stereo not drawn)
XF 498 CNS
  TGI: 41.4 µM
SNB-78 CNS
  TGI: > 100 µM
DMS 114 small cell lung
  TGI: 33.1 µM

## O=c1[nH]c(=O)n([C@@H]2C[C@H](CO)[C@H](O)C2)cc1/C=C/Br
DMS 273 small cell lung
  TGI: > 100 µM
SNB-78 CNS
  TGI: > 100 µM
DMS 114 small cell lung
  TGI: > 100 µM

— PubChem BioAssay (NCI)
